This is an account of results in US5952354A, “Tris carbamic acid esters: inhibitors of cholesterol absorption” (priority 1993, dated 1999).

Where two headings read alike, the source gives them in different places. A value given as a limit tells only on which side of the number the result lay.

The target in experiment [1] is T1, cholesterol esterase (EC 3.1.1.13) (CEH) (Bos taurus, UniProt P30122).
T1 construct: purchased Sigma Company, St. Louis, Mo., U.S.A. C-1892; host or cells: bovine pancreas
T1 sequence (P30122 19-597): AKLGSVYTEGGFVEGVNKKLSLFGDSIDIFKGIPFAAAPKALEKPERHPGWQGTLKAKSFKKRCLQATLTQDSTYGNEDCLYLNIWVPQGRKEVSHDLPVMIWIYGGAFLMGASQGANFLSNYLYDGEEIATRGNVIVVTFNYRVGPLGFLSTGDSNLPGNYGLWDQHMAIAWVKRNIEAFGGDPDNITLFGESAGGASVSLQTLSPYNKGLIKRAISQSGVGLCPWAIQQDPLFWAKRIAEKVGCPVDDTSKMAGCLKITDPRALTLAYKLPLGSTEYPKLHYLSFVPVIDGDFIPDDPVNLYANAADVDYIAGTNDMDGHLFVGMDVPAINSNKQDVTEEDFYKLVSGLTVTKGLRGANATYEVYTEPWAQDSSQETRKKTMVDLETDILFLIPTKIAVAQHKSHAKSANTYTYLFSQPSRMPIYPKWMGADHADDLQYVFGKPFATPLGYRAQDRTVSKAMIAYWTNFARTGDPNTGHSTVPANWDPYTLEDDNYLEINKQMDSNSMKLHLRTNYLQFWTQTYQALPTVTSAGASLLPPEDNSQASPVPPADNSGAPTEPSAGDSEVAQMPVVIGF
Description: inhibition of cholesteryl ester formation by cholesterol esterase (CEH), procedure of Field. Format: biochemical, bovine. The procedure: 2. The ability of the compounds of this invention to inhibit the formation of cholesteryl esters and thereby interfere with and prevent assimilation of cholesterol into the lymphatic system and ultimately the blood stream was established by incubating the compounds at 37C. with a mixture of cholesterol and oleic acid in the presence of buffered cholesterol esterase [(EC 3.1.1.13) Sigma Company, St. Louis, Mo., U.S.A., No. C-1892, from bovine pancreas] and measuring the amount of ester formed, according to the procedure of Field. J. of Lipid Research, 25, 389 (1984).

Experiment [2] relates to acyl-coenzyme A: cholesterol acyltransferase (ACAT). Description: inhibition of acyl-coenzyme A: cholesterol acyltransferase (intracellular cholesterol esterification, procedure of Ross et al.). It is filed as cell-based. The conditions noted are these: for IC50: read-out: ACAT IC50. How it is done: 1. The ability of the compounds of this invention to inhibit acyl-coenzyme A: cholesterol acyltransferase was established by initially showing that they inhibited intracellular cholesterol esterification by subjecting them to the standard experimental test procedure of Ross et al., J. Biol. Chem. 259, 814 (1984). The results are reported in the following table, where available, in terms of the percent inhibition at 25 μM and the IC50 (μM).

Experiment [3] relates to absorption of 14C-cholesterol. Description: in vivo cholesterol absorption studies in normal rats ([4-14C] cholesterol). The settings on record: Rattus norvegicus, read-out: Effect on Absorption of 14C-chol. - 6 hr - normal, % Decrease; for inhibition in vivo at 10 mg/kg: 10 mg/kg oral; for inhibition in vivo at 3 mg/kg: 3 mg/kg oral. The procedure: The in vivo cholesterol absorption studies were conducted in normal rats by oral administration of the compound being tested in propylene glycol and olive oil followed by oral administration of [4-^14 C] cholesterol in propylene glycol and olive oil, otherwise following the procedure of Cayen et al., J. Lipid Res. 20 162 (1979). The serum radioactivity was measured at six hours after dosing. The results of this study are reported in the following table as percent decrease compared to control at the dose stated.

Setting [4] is: 37C, cholesterol and oleic acid, buffered cholesterol esterase from bovine pancreas, read-out: CEH IC50.
Setting [5] is: normal rats, serum radioactivity at 6 hr, vs control.
Where [6] appears, read: 20 mg/kg oral, normal rats, serum radioactivity at 6 hr, vs control.

For the molecule `O=C(NCCCCCCOC(=O)N1CCC2(CCCC2)CC1)OC1CCN(C(=O)Oc2ccc(Oc3ccccc3)cc2)CC1` [Example 12, 8-Aza-spiro[4,5]decane-8-carboxylic acid 6-{[1-(4-phenoxy-phenoxycarbonyl)-piperidine-4-oxycarbonyl]amino}-hexyl ester], the IC50 (usually the concentration needed to halve the response being measured) in experiment [1] (setting [4]) is 0.31 µM; in experiment [2], 1.72 µM. Besides, the “ACAT % inhibition at 25 μM” value in experiment [2] is given as 83%. For the same molecule, the inhibition in vivo at 10 mg/kg in experiment [3] (setting [5]) was determined as 76%.

For `O=C(NCCCCCCOC(=O)N1CCCCC1)OC1CCN(C(=O)Oc2ccc(Oc3ccccc3)cc2)CC1` [Example 8, 4-[6-(Piperidine-1-carbonyloxy)-hexylcarbamoyloxy]-piperidine-1-carboxylic acid 4-phenoxyphenyl ester], the half-maximal inhibitory concentration (IC50) in experiment [1] (setting [4]) stood at 0.54 µM. In addition, in experiment [2], the “ACAT % inhibition at 25 μM” value stood at 98% and the IC50 was determined as 2.34 µM. Moreover, the inhibition in vivo at 3 mg/kg in experiment [3] (setting [5]) was found to be 65%.

With `CCCCCCCN(Cc1ccc(CC(C)(C)C)cc1)C(=O)OCCCCCCNC(=O)OC1CCN(C(=O)Oc2ccc(Oc3ccccc3)cc2)CC1` [Example 11, 4-{6-[(4-(2,2-Dimethyl-propyl)-benzyl)-heptyl-carbamoyloxy]-hexyl-carbamoyloxy}-piperidine-1-carboxylic acid 4-phenoxyphenyl ester], the IC50 in experiment [1] (setting [4]) came out at 28.2 µM. The “ACAT % inhibition at 25 μM” value in experiment [2] was 24%. Also, the inhibition in vivo at 20 mg/kg in experiment [3] (setting [6]) was 6%.

In the case of `CCCCCCCC/C=C\CCCCCCCCNC(=O)OCCCCCCNC(=O)OC1CCN(C(=O)Oc2ccc(Oc3ccccc3)cc2)CC1` [Example 13], in experiment [1] (setting [4]), the 50% inhibitory concentration (IC50) stood at 15.5 µM. Moreover, in experiment [2], the “ACAT % inhibition at 25 μM” value is listed as 47%. Besides, in experiment [3] (setting [6]), the inhibition in vivo at 20 mg/kg worked out at 20%.

With `CCCCCCCC/C=C\CCCCCCCCNC(=O)OCCCCCCCCCCCCNC(=O)OC1CCN(C(=O)Oc2ccc(Oc3ccccc3)cc2)CC1` [Example 14, (Z)-4-[12-(Octadec-9-enylcarbamoyloxy)-dodecylcarbamoyloxy]-piperidine-1-carboxylic acid 4-phenoxyphenyl ester], the concentration for half-maximal inhibition (IC50) in experiment [1] (setting [4]) was over 100 µM. The “ACAT % inhibition at 25 μM” value in experiment [2] is reported as 41%. Further, the inhibition in vivo at 20 mg/kg in experiment [3] (setting [6]) was 2%.

`CCCCCCNC(=O)OCCCCCCCCCCCCNC(=O)OC1CCN(C(=O)Oc2ccc(Oc3ccccc3)cc2)CC1` [Example 10, 4-[12-(Hexylcarbamoyloxy)-dodecylcarbamoyloxy]-piperidine-1-carboxylic acid 4-phenxoyphenyl ester] returned an IC50 in experiment [1] of 0.62 µM. For the same molecule, in experiment [2], the “ACAT % inhibition at 25 μM” value is recorded as 83% and the half-inhibitory concentration (IC50) amounted to 5 µM. The inhibition in vivo at 20 mg/kg in experiment [3] (po, 6 h) amounted to 22%.

With `CCCCCCN(CCCCCC)C(=O)OCCCCCCNC(=O)OC1CCN(C(=O)Oc2ccc(Oc3ccccc3)cc2)CC1` [Example 7], the 50% inhibitory concentration (IC50) in experiment [1] (setting [4]) was 0.67 µM. For the same molecule, in experiment [2], the “ACAT % inhibition at 25 μM” value is on record as 76% and the half-maximal inhibitory concentration (IC50) is 6.41 µM. In addition, the inhibition in vivo at 20 mg/kg in experiment [3] (setting [6]) was determined as 42%.

As for `CCCCCCNC(=O)OCCCNC(=O)OC1CCN(C(=O)Oc2ccc(Oc3ccccc3)cc2)CC1` [Example 16, 4-[3-(Hexylcarbamoyloxy)-propylcarbamoyloxy]-piperidine-1-carboxylic acid 4-phenoxyphenyl ester], the IC50 in experiment [1] (setting [4]) came out at 0.73 µM. Also, the inhibition in vivo at 10 mg/kg in experiment [3] (setting [5]) was found to be 68%.

Consider `CCCCCCCCCNC(=O)OCCCNC(=O)OC1CCN(C(=O)Oc2ccc(Oc3ccccc3)cc2)CC1` [Example 18, 4-[3-(Nonylcarbamoyloxy)-propylcarbamoyloxy]-piperidine-1-carboxylic acid 4-phenoxyphenyl ester], for which, in experiment [1] (setting [4]), the IC50 worked out at 0.51 µM. In addition, the inhibition in vivo at 10 mg/kg in experiment [3] (setting [5]) was found to be 50%.

With `O=C(NCCCCCCOC(=O)N(Cc1ccccc1)Cc1ccccc1)OC1CCN(C(=O)Oc2ccc(Oc3ccccc3)cc2)CC1` [Example 9], the figures for the IC50 in experiment [1] (setting [4]) and in experiment [2] were 0.08 µM and 1.59 µM, respectively. Besides, the “ACAT % inhibition at 25 μM” value in experiment [2] was 95%. Further, the inhibition in vivo at 10 mg/kg in experiment [3] (setting [5]) was found to be 49%.

Turning to `CCCCCCNC(=O)OCCCCCCNC(=O)OC1CCN(C(=O)Oc2ccc(Oc3ccccc3)cc2)CC1` [Example 6, 4-[6-(Hexylcarbamoyloxy)-hexylcarbamoyloxy]-piperidine-1-carboxylic acid 4-phenoxyphenyl ester], the IC50 in experiment [1] (setting [4]) was 0.42 µM. Further, in experiment [2], the “ACAT % inhibition at 25 μM” value came to 97% and the IC50 was 1.78 µM. Besides, in experiment [3] (setting [5]), the inhibition in vivo at 3 mg/kg turned out to be 59%.
